The test system of data set [1] is nontumorigenic neonatal foreskin fibroblast (NFF) cell line.
Data set [2] has as its system Trichomonas vaginalis G3 trophozoites. In words: microbe, parasite or virus in culture. Conditions: 48 h.
[3] abbreviates: NFF fibroblasts, single concentration 5 µg/mL.
Where [4] appears, read: read-out: T.vaginalis_%inb_Rep1.
Setting [5] is: read-out: T.vaginalis_%inb_Rep2.
Setting [6] is: NFF fibroblast screen at 5 µg/mL, A = active, I = inactive.

Where a name gives a salt, the structure may show the parent alone. Read-outs that look alike come from different tables or passages of the source.

`O=C(O)c1c(-c2ccc[nH]2)[nH]c2ccccc2c1=O` [Penicinoline]: the NFF_Activity entry in data set [1] (setting [3]) is “I (otherwise these were reported as inactive (I))”. In addition, the inhibition of growth at 1 µg/mL in data set [2] (setting [4]) came out at 13.9%; in data set [2] (setting [5]), 11%.
For `C=C(C)[C@@H]1NC(=O)[C@@H](NC)[C@@H](O)c2cc(Cl)c(O)c(c2)O[C@](C)(CC)[C@@H](C(=O)N2CC=C[C@H]2C(=O)N/C(C(=O)N/C(=C/C(=O)O)C(=O)O)=C(\C)CC)NC1=O` [Phomopsin A], the NFF_Activity result in data set [1] (setting [3]) was “I (otherwise these were reported as inactive (I))”. In addition, the inhibition of growth at 1 µg/mL in data set [2] (setting [4]) was 11.7%; in data set [2] (setting [5]), 11%.
Turning to `C/C=C(\C)[C@H](O)[C@H](C)/C=C(C)/C=C/C/C(C)=C/Cc1nc(OC)c(OC)c(O)c1C` [Piericidin A], the NFF_Activity result in data set [1] (setting [3]) was “I (otherwise these were reported as inactive (I))”. Also, the inhibition of growth at 1 µg/mL in data set [2] (setting [4]) turned out to be 11.3%; in data set [2] (setting [5]), 4.17%.
Turning to `C=C1C[C@@]23C=CC(=O)[C@@](C)(CCC(=O)Nc4c(O)ccc(C(=O)O)c4O)[C@@H]2C[C@@H]1CC3` [Platencin], the NFF_Activity entry in data set [1] (setting [3]) is “I (otherwise these were reported as inactive (I))”. Also, the inhibition of growth at 1 µg/mL in data set [2] (setting [4]) was 11.3%; in data set [2] (setting [5]), 10.7%.
As to `CC12C[C@@]34C=CC(=O)[C@@](C)(CCC(=O)Nc5c(O)ccc(C(=O)O)c5O)C3[C@H](CC1C4)O2` (stereo partly drawn) [Platensimycin], in data set [1] (setting [3]), the NFF_Activity entry is “I (otherwise these were reported as inactive (I))”. The results for the inhibition of growth at 1 µg/mL in data set [2] (setting [4]) and in data set [2] (setting [5]) were 11.3% and 10%, respectively.
In the same order, the values of `C=C[C@]1(C)C[C@@H](OC(=O)CO)[C@]2(C)[C@H](C)CC[C@]3(CCC(=O)[C@H]32)[C@@H](C)[C@@H]1O` [Pleuromutilin] are “I (otherwise these were reported as inactive (I))”, 10.1% and 11.7%.
The corresponding values for `CC1(C)CCC[C@]2(C)[C@@H](C=O)C(C=O)=CC[C@@H]12` [Polygodial] are “A (active (A) compounds having >25% inhibitory activity)”, 13.1% and 13.9%.
As to `CCCCCC1=C/C(=C/c2[nH]c(-c3ccc[nH]3)cc2OC)N=C1C` [Prodigiosin], the NFF_Activity result in data set [1] (setting [3]) is “I (otherwise these were reported as inactive (I))”. Further, the inhibition of growth at 1 µg/mL in data set [2] (setting [4]) amounted to 9.63%; in data set [2] (setting [5]) it was 1.73%.
For the compound `CC/C=C\[C@H](O)[C@H](O)C1=C(C)C(=O)[C@]2(O1)C(=O)N[C@@](OC)(C(=O)c1ccccc1)[C@@H]2O` [Pseurotin A], the NFF_Activity result in data set [1] (setting [3]) is “I (otherwise these were reported as inactive (I))”. The inhibition of growth at 1 µg/mL in data set [2] (setting [4]) and in data set [2] (setting [5]) was 11.5% throughout.
For the compound `COc1cc(C(=O)O)c2c(c1C)OC(=O)c1c(C)cc(O)c(C=O)c1O2` [Psoromic acid], the NFF_Activity result in data set [1] (setting [3]) was “I (otherwise these were reported as inactive (I))”. Also, the values for the inhibition of growth at 1 µg/mL in data set [2] (setting [4]) and in data set [2] (setting [5]) were 13.9% and 10.4%, respectively.
Take `CN(C)c1ncnc2c1ncn2[C@@H]1O[C@H](CO)[C@@H](N)[C@H]1O` [Puromycin aminonucleoside]: in data set [1] (setting [3]), the NFF_Activity entry is “I (otherwise these were reported as inactive (I))”. Moreover, the inhibition of growth at 1 µg/mL in data set [2] (setting [4]) was 15.7%; in data set [2] (setting [5]) it was 13%.
As for `O=C(c1cc(Cl)c(Cl)[nH]1)c1c(O)cccc1O` [Pyoluteorin], the NFF_Activity entry in data set [1] (setting [3]) is “I (otherwise these were reported as inactive (I))”. In addition, the inhibition of growth at 1 µg/mL in data set [2] (setting [4]) turned out to be 6.82%; in data set [2] (setting [5]), 7.19%.
The corresponding values for `CC1(C)C[C@]23[C@@H]4COC(=O)[C@H]2CC[C@H]1[C@@H]3CC4=O` [Quadrone] are “A (active (A) compounds having >25% inhibitory activity)”, 11.6% and 11.6%.
On to `C=C(NC(=O)C(=C)NC(=O)c1csc(C2=N[C@@H]3c4csc(n4)[C@H]4NC(=O)c5csc(n5)[C@H]([C@](C)(O)[C@@H](C)O)NC(=O)[C@H]5CSC(=N5)/C(=C/C)NC(=O)[C@H]([C@@H](C)O)NC(=O)c5csc(n5)[C@]3(CC2)NC(=O)[C@H](C)NC(=O)C(=C)NC(=O)[C@H](C)NC(=O)[C@H]([C@@H](C)CC)N[C@@H]2C=Cc3c([C@H](C)O)cc(nc3[C@H]2O)C(=O)O[C@@H]4C)n1)C(N)=O` [Thiostrepton], for which the NFF_Activity result in data set [1] (setting [6]) is “I (otherwise these were reported as inactive (I))”. In addition, the inhibition of growth at 1 µg/mL came to 9.91% in data set [2] (setting [4]) and 14.3% in data set [2] (setting [5]).
For `C=C[C@]1(C)C[C@@H](OC(=O)CSCCN(CC)CC)[C@]2(C)[C@H](C)CC[C@]3(CCC(=O)[C@H]32)[C@@H](C)[C@@H]1O` [Tiamulin], the NFF_Activity result in data set [1] (setting [6]) is “I (otherwise these were reported as inactive (I))”. For the same compound, the inhibition of growth at 1 µg/mL amounted to 12.6% in data set [2] (setting [4]) and 13.9% in data set [2] (setting [5]).
`CC[C@H]1OC(=O)C[C@@H](O)[C@H](C)[C@@H](O[C@@H]2O[C@H](C)[C@@H](O)[C@H](N(C)C)[C@H]2O)[C@@H](CCN2C[C@H](C)C[C@H](C)C2)C[C@@H](C)C(=O)/C=C/C(C)=C/[C@@H]1CO[C@@H]1O[C@H](C)[C@@H](O)[C@@H](OC)[C@H]1OC` [Tilmicosin]: the NFF_Activity result in data set [1] (setting [6]) was “I (otherwise these were reported as inactive (I))”. The inhibition of growth at 1 µg/mL in data set [2] (setting [4]) was 2.41%; in data set [2] (setting [5]), 4.94%.
As for `CC(C)[C@@H]1NC(=O)[C@H](C)OC(=O)[C@@H](C(C)C)NC(=O)[C@@H](C(C)C)OC(=O)[C@H](C(C)C)NC(=O)[C@H](C)OC(=O)[C@@H](C(C)C)NC(=O)[C@@H](C(C)C)OC(=O)[C@H](C(C)C)NC(=O)[C@H](C)OC(=O)[C@@H](C(C)C)NC(=O)[C@@H](C(C)C)OC1=O` [Valinomycin], the NFF_Activity entry in data set [1] (setting [6]) was “I (otherwise these were reported as inactive (I))”. The results for the inhibition of growth at 1 µg/mL in data set [2] (setting [4]) and in data set [2] (setting [5]) were 9.18% and 12.2%, respectively.
For `CN[C@H](CC(C)C)C(=O)N[C@H]1C(=O)N[C@@H](CC(N)=O)C(=O)N[C@H]2C(=O)N[C@H]3C(=O)N[C@H](C(=O)N[C@H](C(=O)O)c4cc(O)cc(O)c4-c4cc3ccc4O)[C@H](O)c3ccc(c(Cl)c3)Oc3cc2cc(c3O[C@@H]2O[C@H](CO)[C@@H](O)[C@H](O)[C@H]2O[C@H]2C[C@](C)(N)[C@H](O)[C@H](C)O2)Oc2ccc(cc2Cl)[C@H]1O` [Vancomycin hydrochloride], in data set [1], the NFF_Activity entry was “I (key: active (A) compounds having >25% inhibitory activity; otherwise these were reported as inactive (I))”. The inhibition of growth at 1 µg/mL in data set [2] (setting [4]) is 1.36%; in data set [2] (setting [5]), 5.42%.
`COc1ccc2c3c4n(c2c1)[C@H](C=C(C)C)OOC(C)(C)C[C@@H]4N1C(=O)[C@@H]2CCCN2C(=O)[C@]1(O)[C@H]3O` [Verruculogen]: the NFF_Activity result in data set [1] (setting [6]) was “I (otherwise these were reported as inactive (I))”. Moreover, the inhibition of growth at 1 µg/mL in data set [2] (setting [4]) worked out at 10.3%; in data set [2] (setting [5]) it was 10.6%.
Consider `O=c1[nH]c2ccccc2c(-c2ccccc2)c1O` [Viridicatin], for which the NFF_Activity result in data set [1] (setting [6]) is “I (otherwise these were reported as inactive (I))”. The inhibition of growth at 1 µg/mL in data set [2] (setting [4]) was found to be 10.7%; in data set [2] (setting [5]) it was 15.1%.
The corresponding values for `CC=C1CN(C)C2Cc3c([nH]c4ccccc34)C(c3cc4[nH]c5c(c4cc3OC)CCN3CC4CC(CC)C3C5(C(=O)OC)C4)CC1C2C(=O)OC` (stereo not drawn) [Voacamine] are “I (otherwise these were reported as inactive (I))”, 9.44% and 11.1%.
Take `COC(=O)C1=C2Nc3ccccc3[C@@]23CCN2C[C@]4(C[C@@H]5C[C@]67CCC[C@H]6CCN6CC[C@@]8(c9cccc(OC)c9N(C4)[C@@]58O)[C@@H]67)[C@@H]4OCC[C@]4(C1)[C@H]23` [Vobtusine]: the NFF_Activity result in data set [1] (setting [6]) was “I (otherwise these were reported as inactive (I))”. Moreover, the inhibition of growth at 1 µg/mL was 9.54% in data set [2] (setting [4]) and 11.4% in data set [2] (setting [5]).
Regarding `COC(=O)/C(=C1/OC(=O)C(c2ccccc2)=C1O)c1ccccc1` [Vulpinic acid], the NFF_Activity result in data set [1] (setting [6]) was “I (otherwise these were reported as inactive (I))”. Also, the inhibition of growth at 1 µg/mL in data set [2] (setting [4]) is 8.02%; in data set [2] (setting [5]), 11.4%.
As to `Cc1nnc2n1-c1sc(CCC(=O)N3CCOCC3)cc1C(c1ccccc1Cl)=NC2` [WEB 2086], the NFF_Activity entry in data set [1] (setting [6]) is “I (otherwise these were reported as inactive (I))”. The inhibition of growth at 1 µg/mL stood at 9.91% in data set [2] (setting [4]) and 13.4% in data set [2] (setting [5]).
On to `COC[C@H]1OC(=O)c2coc3c2[C@@]1(C)C1=C(C3=O)[C@@H]2CCC(=O)[C@@]2(C)C[C@H]1OC(C)=O` [Wortmannin], for which the NFF_Activity entry in data set [1] (setting [6]) was “I (otherwise these were reported as inactive (I))”. Besides, the inhibition of growth at 1 µg/mL in data set [2] (setting [4]) was found to be 7.97%; in data set [2] (setting [5]) it was 13.5%.
As to `CC1(C)C=Cc2cc3ccc(=O)oc3cc2O1` [Xanthyletin], the NFF_Activity result in data set [1] (setting [6]) was “I (otherwise these were reported as inactive (I))”. The inhibition of growth at 1 µg/mL turned out to be 12% in data set [2] (setting [4]) and 15.5% in data set [2] (setting [5]).
Regarding `C=C(CC[C@]12O[C@H](C(=O)O)[C@@](O)(C(=O)O)[C@](C(=O)O)(O1)[C@H](OC(=O)/C=C/[C@@H](C)C[C@@H](C)CC)[C@H]2O)[C@@H](OC(C)=O)[C@H](C)Cc1ccccc1` [Zaragozic acid A], the NFF_Activity entry in data set [1] (setting [6]) was “I (otherwise these were reported as inactive (I))”. Besides, the inhibition of growth at 1 µg/mL is 9.75% in data set [2] (setting [4]) and 7.01% in data set [2] (setting [5]).
For `C[C@H]1CCCC(=O)CCCCCc2cc(O)cc(O)c2C(=O)O1` [Zearalanone], in data set [1] (setting [6]), the NFF_Activity entry was “I (otherwise these were reported as inactive (I))”. Moreover, the inhibition of growth at 1 µg/mL was 10.1% in data set [2] (setting [4]) and 14.6% in data set [2] (setting [5]).
With `C[C@H]1CCCC(=O)CCC/C=C/c2cc(O)cc(O)c2C(=O)O1` [Zearalenone], the NFF_Activity entry in data set [1] (setting [6]) is “I (otherwise these were reported as inactive (I))”. Further, the inhibition of growth at 1 µg/mL in data set [2] (setting [4]) was 7.39%; in data set [2] (setting [5]), 12%.

The values above are taken from article PMC7897990, “TriTOX: A novel Trichomonas vaginalis assay platform for high-throughput screening of compound libraries” (International Journal for Parasitology: Drugs and Drug …, 2021).
